pIC50: −log10 of the molar value.
Assays:
Neurotrypsin = molecular target: T1, Neurotrypsin (Homo sapiens, UniProt P56730); assay: Inhibition of human neurotrypsin
T1 sequence (P56730 whole entry): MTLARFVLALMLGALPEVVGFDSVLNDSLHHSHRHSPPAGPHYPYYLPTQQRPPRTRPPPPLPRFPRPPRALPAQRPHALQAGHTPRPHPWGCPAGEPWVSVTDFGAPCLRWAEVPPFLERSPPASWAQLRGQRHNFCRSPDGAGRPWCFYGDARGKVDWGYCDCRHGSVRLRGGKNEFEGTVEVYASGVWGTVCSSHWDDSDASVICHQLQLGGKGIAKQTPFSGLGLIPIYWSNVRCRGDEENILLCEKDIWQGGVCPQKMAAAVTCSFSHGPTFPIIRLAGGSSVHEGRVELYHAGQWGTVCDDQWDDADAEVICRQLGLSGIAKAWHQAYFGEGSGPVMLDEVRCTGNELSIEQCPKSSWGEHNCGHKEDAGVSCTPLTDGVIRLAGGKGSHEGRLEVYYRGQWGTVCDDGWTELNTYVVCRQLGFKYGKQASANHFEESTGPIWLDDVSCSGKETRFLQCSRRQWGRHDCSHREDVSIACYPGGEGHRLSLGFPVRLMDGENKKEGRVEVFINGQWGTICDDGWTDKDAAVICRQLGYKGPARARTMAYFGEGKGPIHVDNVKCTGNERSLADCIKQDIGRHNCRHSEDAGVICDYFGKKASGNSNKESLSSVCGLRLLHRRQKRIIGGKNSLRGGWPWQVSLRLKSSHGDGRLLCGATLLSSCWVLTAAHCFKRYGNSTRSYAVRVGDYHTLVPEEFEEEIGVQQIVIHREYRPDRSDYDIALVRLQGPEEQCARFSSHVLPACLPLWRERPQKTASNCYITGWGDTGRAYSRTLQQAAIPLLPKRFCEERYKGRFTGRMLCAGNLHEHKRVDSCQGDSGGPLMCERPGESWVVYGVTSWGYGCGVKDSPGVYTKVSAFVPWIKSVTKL

[1] = Inhibition of hog trypsin assessed as reduction in liberation of free para-nitroanilide using S-2222 substrate incubated for 20 to 30 mins; parameters: species or system Sus scrofa
[2] = Toxicity in C57/BL6 mouse assessed as weight loss dosed 3 times at 25 mg/kg, ip equivalent of active ingredient administered with 8 hrs gap between dose 1 and dose 2 and 16 hrs gap between dose 2 and dose 3 (reference value: 5.67%); format: organism-based; conditions: in vivo

Row | Structure (SMILES) | pIC50 (Neurotrypsin) | pIC50 [1] | Activity [2]
1 | O=C(NCc1ccc(Cl)s1)c1ccc(NC(=O)c2ccc(-c3nc4cc(Cl)c(Cl)cc4[nH]3)cc2)c(C(=O)O)c1 | 5.48 |  | 
2 | NCCCC[C@H](N)C(=O)O.O=C(Nc1ccc(Cl)cc1)c1ccc(NC(=O)c2ccc(-c3nc4cc(Cl)c(Cl)cc4[nH]3)cc2)c(C(=O)O)c1 |  | < 3.82 | 5.52%
